Measurements published in patent US5763474A, “Substituted N-arylmethylamino derivatives of cyclobutene-3,4-diones” (American Home Products Corporation, priority 1997, dated 1998).
Like-named read-outs stand apart in the source and are kept apart here. One block for each compound: values may come before it.

What was measured:
[1] = system: Isolated Rat Bladder Strips; assay: Inhibition of Contractions in Isolated Rat Bladder Strips (15 mM KCl-enhanced contractile activity); design: species or system Sprague-Dawley rats; details: for activity at 30 µM: read-out: Percent contraction at 30 μM (C); for inhibition at 30 µM: read-out: Percent inhibition at 30 μM (I)
Excerpt: The smooth muscle relaxing activity of the compounds of this invention was established in accordance with standard pharmaceutically accepted test procedures with representative compounds as follows:
Sprague-Dawley rats (150-200 g) are rendered unconscious by CO2 asphyxiation and then euthanized by cervical dislocation. The bladder is removed into warm (37 deg.C.) physiological salt solution (PSS) of the following composition (mM): NaCl, 118.4; KCl, 4.7; CaCl2, 2.5; […]; NaHCO3, 24.9; KH2 PO4, 1.2; glucose, 11.1; EDTA, 0.023; gassed with […]; pH 7.4. The bladder is opened and then cut into strips 1-2 mm in width and 7-10 mm in length. The strips are subsequently suspended in a 10 mL tissue bath under an initial resting tension of 1.5 g. The strips are held in place by two surgical clips one of which is attached to a fixed hook while the other is attached to an isometric force transducer. […] The carbachol is then washed out and the tissue allowed to relax to its resting level of activity. Following a further 30 minute period of recovery an additional 15 mM KCl are introduced into the tissue bath. This increase in KCl concentration results in a large increase in the amplitude of spontaneous contractions (and initiation of contractions in previously quiescent strips) superimposed upon a small increase in basal tone. Following stabilization of this enhanced level of contractile activity, incremental increases in the concentration of test compound or vehicle are introduced into the tissue bath. Contractile activity is measured for each compound or vehicle concentration during the last minute of a 30 minute challenge.
The isometric force developed by the bladder strips is measured using a […]. The (IC50 concentration) is calculated from this concentration-response curve.

[2] = system: hypertrophied bladder (detrussor) smooth muscle in conscious female rats; assay: Inhibition of Spontaneous Contractions In Vivo in the hypertrophied rat bladder model (cystometry, conscious rats); design: species or system Female Sprague-Dawley rats
Experimental: In addition, we tested the ability of compounds to inhibit the hyperactivity of hypertrophied bladder (detrussor) smooth muscle in conscious female rats with hypertrophied bladders and thereby alleviate urinary incontinence in rats according to the following protocol described by Malmgren et al., J. Urol. 142:1134, 1989:
Female Sprague-Dawley rats, ranging in weight from 190-210 g are used. Up to 25 animals are prepared each time. After developemnt of bladder hypertrophy 4-8 animals are used per test.
Compounds are dissolved in PEG-200 and administered by gastric gavage or intraveneously in a volume of 5 ml/kg. For primary screening all drugs are administered at the arbitrary dose of 10 mg/kg p.o. to groups of 4 rats.
The animals are anesthetized with halothane. Through a midline incision the bladder and urethra are exposed and a ligature of 4-0 silk is tied around the proximal urethra in the presence of a stainless steel rod (1 mm diameter) to produce a partial occlusion. The rod is then removed. The abdominal region is closed using surgical staples and each rat receives 150,000 units of bicillin C-R. The animals are allowed six weeks to develop sufficient bladder hypertrophy. After six weeks, the ligature is removed under halothane anesthesia and a catheter (PE 60) with a cuff is placed in the dome of the bladder and secured with a purse string suture. The catheter is tunneled under the skin and exteriorized through an opening in the back of the neck. The abdominal incision is sutured and the free end of the catheter sealed. In order to prevent infections the rats receive an injection of bicillin C-R (150000 units/rat). Two days later the animals are used in cystometrical evaluations, The animals are placed in the metabolic cages and the catheter is attached (using a "T" connector) to a Statham pressure transducer (Model P23Db) and to a Harvard infusion pump. A plastic beaker attached to a force displacement transducer (Grass FTO3) is placed under the rat's cage to collect and record urine volume. Animals are allowed 15-30 minutes to rest before the saline infusion (20 ml/hr for 20 minutes) is started for the first cystometry period. Two hours after the first cystometry period, the rats are dosed with the vehicle or the test compound and one hour later a second cystometry is performed.
The following urodynamic variables are recorded:
The mean value of each variable is calculated before and after compound administration. For each compound the changes in the variables measured are compared to the values obtained before treatment and expressed as percent inhibition. The data are also subjected to 2-way analysis of variance to determine significant (p<0.05) changes in the variable measured. The most characteristic finding in this rat model is spontaneous bladder contractions which develop during filling.

[3] = 0.5 h, isolated rat bladder strips, 15 mM KCl, 30 minute challenge, read-out: IC50, inhibition of contractions in isolated rat bladder strips
[4] = 0.5 h, isolated rat bladder strips

IC50 [1, 3]: 4.5 ± 4.2 µM
SMILES: CCC(C)(C)Nc1c(N(Cc2c(C)cc(Cl)cc2Cl)C(=O)OC(C)(C)C)c(=O)c1=O [Example 26, (2,4-Dichloro-6-methyl-benzyl)-[2-(1,1-dimethyl-propylamino)-3,4-dioxo-cyelobut-1-enyl]-carbamic acid tert-butyl ester]

IC50 [1, 3]: 8.9 ± 4 µM
SMILES: CCC(C)(C)Nc1c(NCc2ccc(Cl)c(Cl)c2)c(=O)c1=O [Example 25]
activity at 30 µM [1, 4]: 57.9 ± 4.2%

SMILES: CCC(CC)Nc1c(NCc2ccc(Cl)c(Cl)c2)c(=O)c1=O [Example 14, 3-(3,4-Dichloro-benzylamino)-4-(1-ethyl-propylamino)-cyclobut-3-ene-1,2-dione]
inhibition at 30 µM ([1]; isolated rat bladder strips): 22 ± 5.9%

IC50 [1, 3]: 2 ± 1 µM
SMILES: CC(Nc1c(NCc2ccc(Cl)cc2Cl)c(=O)c1=O)C(C)(C)C (stereo not drawn) [Example 2, 3-(2,4-Dichlorobenzylamino)-4-(1,2,2-trimethylproylamino)-cyclobut-3-ene-1,2-dione]

IC50 [1, 3]: 15.8 ± 0.05 µM
SMILES: CCC(C)(C)Nc1c(N(Cc2ccc(Cl)cc2Cl)C(C)=O)c(=O)c1=O [Example 7, N-(2,4-dichloro-benzyl)-N-[2-(1,1-dimethyl-propylamino)-3,4-dioxo-cyclobut-1-enyl]-acetamide]

IC50 [1, 3]: 0.34 ± 0.22 µM
SMILES: C[C@@H](Nc1c(NCc2ccc(Cl)cc2Cl)c(=O)c1=O)C(C)(C)C [Example 23, (R)-3-(2,4-dichlorobenzylamino)-4-(1,2,2-trimethylpropylamino)-cyclobut-3-ene-1,2-dione]

SMILES: CCCC(=O)N(Cc1ccc(Cl)cc1Cl)c1c(NC(C)(C)CC)c(=O)c1=O [Example 8, N-(2,4-dichloro-benzyl)-N-[2-(1,1-dimethyl-propylamino)-3,4-dioxo-cyclobut-1-enyl]-butyramide]
activity at 30 µM [1, 4]: 82.8 ± 26%
inhibition at 30 µM ([1]; isolated rat bladder strips): 10.2%

IC50 [1, 3]: 1.3 ± 0.6 µM
SMILES: CC(C)(C)Nc1c(NCc2ccc(Cl)cc2Cl)c(=O)c1=O [Example 11, 3-(t-Butylamino)-4-(2,4-dichlorobenzylamino) cyclobut-3-ene-1,2-dione]

SMILES: CCC(C)(C)Nc1c(N(Cc2c(C)cc(Cl)cc2Cl)C(C)=O)c(=O)c1=O [Example 18, N-(2,4-Dichloro-6-methyl-benzyl)-N-[2-(1,1-dimethyl-propylamino)-3,4-dioxo-cyclobut-1-enyl]-acetamide]
inhibition at 30 µM ([1]; isolated rat bladder strips): 26 ± 13.8%

IC50 [1, 3]: 24 ± 9.3 µM
SMILES: CC(C)(CO)Nc1c(NCc2ccc(Cl)cc2Cl)c(=O)c1=O [Example 22, 3-(2,4-Dichlorobenzylamino)-4-(2-hvdroxy-1,1-dimethylethylamino)-cyclobut-3-ene-1,2-dione]

SMILES: CCCC(=O)N(Cc1c(C)cc(Cl)cc1Cl)c1c(NC(C)(C)CC)c(=O)c1=O [Example 17, N-(2,4-Dichloro-6-methyl-benzyl)-N-[2-(1,1-dimethyl-2proplylamino)-3,4-dioxo-cyclobut-1-envl]-butyramide]
activity at 30 µM [1, 4]: 245 ± 15%
% Red (F): percent reduction in the total number of spontaneous contractions ([2]; 10 mg/kg p.o.): -87 ± 2%

IC50 [1, 3]: 0.11 ± 0.002 µM
IC50 ([1]; Rattus norvegicus, prior lot of this compound, mp. 195-196° C., n = 4, read-out: IC50, prior lot): 0.21 ± 0.04 µM
SMILES: CCC(C)(C)Nc1c(NCc2ccc(Cl)cc2Cl)c(=O)c1=O [Example 6, 3-(2,4-Dichlorobenzylamino)-4-(1,1-dimethylpropylamino)-cyclobut-3-ene-1,2-dione]
% Red (F): percent reduction in the total number of spontaneous contractions ([2]; 1 mg/kg p.o., prior lot, mp. 195-196° C.): -40 ± 13%
% Red (F): percent reduction in the total number of spontaneous contractions ([2]; 3 mg/kg p.o., prior lot, mp. 195-196° C.): -58 ± 9%
% Red (F): percent reduction in the total number of spontaneous contractions ([2]; 10 mg/kg p.o., prior lot, mp. 195-196° C.): -68 ± 10%

IC50 [1, 3]: 0.22 ± 0.08 µM
SMILES: Cc1cc(Cl)cc(Cl)c1CNc1c(NC(C)(C)C)c(=O)c1=O [Example 12, 3-tert-butylamino-4-(2,4-dichloro-6-methyl-benzylamino)-cyclobut-3-ene-1,2-dione]
% Red (F): percent reduction in the total number of spontaneous contractions ([2]; 3 mg/kg p.o.): -53 ± 18%

IC50 [1, 3]: 2 ± 0.8 µM
SMILES: CCC(CC)Nc1c(NCc2ccc(Cl)cc2Cl)c(=O)c1=O [Example 15, 3-(2,4-dichloro-benzylamino)-4-(1-ethyl-propylamino)-cyclobut-3-ene-1,2-dione]

IC50 [1, 3]: 9.8 ± 5.1 µM
SMILES: Cc1cc(Cl)cc(Cl)c1CNc1c(N[C@H](C)C(C)(C)C)c(=O)c1=O [Example 4, (R)-3-(2,4-dichloro-6-methyl-benzylamino)-4-(1,2,2-trimethyl-propylamino)-cyclobut-3-ene-1,2-dione]

IC50 [1, 3]: 1.48 ± 0.57 µM
SMILES: CC(C)(C)Nc1c(NCc2ccc(Cl)c(Cl)c2)c(=O)c1=O [Example 24, 3-tert-Butylamino-4-(3,4-dichlorobenzylamino)-cyclobut-3-ene-1,2-dione]
activity at 30 µM [1, 4]: 30%
inhibition at 30 µM ([1]; isolated rat bladder strips): 32.5 ± 3.1%

SMILES: CCC(=O)N(c1c(NCc2c(C)cc(Cl)cc2Cl)c(=O)c1=O)C(C)(C)C [Example 19, N-(tert-butyl)-N-[2-(2,4-Dichloro-6-methyl-benzylamino)-3,4-dioxo-cylobut-1-enyl]-propionamide]
activity at 30 µM [1, 4]: 92.5 ± 44.2%

IC50 [1, 3]: 2.53 ± 0.19 µM
SMILES: Cc1cc(Cl)cc(Cl)c1CNc1c(NC(C)C(C)(C)F)c(=O)c1=O (stereo not drawn) [Example 20, 3-(2,4-dichloro-6-methyl-benzylamino)-4-(1,2-dimethyl-2-fluoro-propylamino)-cyclobut-3-ene-1,2-dione]

IC50 [1, 3]: 0.2 ± 0.06 µM
SMILES: CCC(C)(C)Nc1c(NCc2c(C)cc(Cl)cc2Cl)c(=O)c1=O [Example 9, 3-(2,4-Dichloro-6-methyl-benzylamino)-4-(1,1-dimethyl-propylamino)-cyclobut-3-ene-1 2-dione]
% Red (F): percent reduction in the total number of spontaneous contractions ([2]; 1 mg/kg p.o.): -63 ± 13%
% Red (F): percent reduction in the total number of spontaneous contractions ([2]; 3 mg/kg p.o.): -82 ± 5%

IC50 [1, 3]: 9.35 ± 0.46 µM
SMILES: Cc1cc(Cl)cc(Cl)c1CNc1c(NCC(F)(F)C(F)(F)F)c(=O)c1=O [Example 16]
inhibition at 30 µM ([1]; isolated rat bladder strips): 36 ± 3.2%
